Source: patent publication US20230414632A1, “INHIBITION OF THE HIV-1 REPLICATION BY COMPOUNDS DIRECTED AGAINST A NEW TARGET OF THE VIRAL CYCLE” (priority 2020, published 2023)

Tests used:
MT4 cells = test: Cell survival / cellular toxicity in infected MT4 cells (flow cytometry); type: cell-based; conditions: up to 10 μM compound, day 5, MT4 cells
Protocol: For HIV-1 gfp+ vectors, viral replication is followed by GFP expression [i.e. the percentage and geometric mean fluorescence intensity (MFI) of GFP^+ cells]. Infectivity was estimated by flow cytometry using a FACSCalibur™ cytofluorometer (BD Biosciences). Toxicity is also assessed by flow cytometry (side and forward scatter).
At J0 (day zero) MT4 cells was used for infection with HIV gfp+ virus at multiplicity of infection (m.o.i.) reaching 0.1-0.2 (50 ng of p24^gag antigen per 10^6 cells). Two days post-infection (J2), MT4 cells are washed extensively (3 times with PBS) and resuspended using fresh RPMI medium (2×10^5 cells per ml) and plated into 6 well plates (2 ml per well) in the presence of compounds of formula I or II at various molecules concentrations. A control not infected with the virus (MT4 Ninf), or brought into contact with DMSO (inf DMSO, the solvent of compounds of formula I or II), or with dolutegravir (DTG) at 100 nM, a known inhibitor of the integrase, are conducted in parallel. At time J5 (day five), cells are then collected for cytometry analysis to quantify the production of viral particles and cell survival.

[1] = biological target: interaction between the HIV-1 integrase (IN) and the catalytic domain of the human mitochondrial lysyl-tRNA synthetase (mLysRS) (Homo sapiens (Human), UniProt P12497+Q15046); test: HTRF assay of the mLysRS:IN interaction; type: binding, HIV-1 / human; conditions: compound from 17 to 666 μM
Sequence of interaction between the HIV-1 integrase (IN) and the catalytic domain of the human mitochondrial lysyl-tRNA synthetase (mLysRS) (Q15046 whole entry, looked up, other chains not shown, the tested form may be a part): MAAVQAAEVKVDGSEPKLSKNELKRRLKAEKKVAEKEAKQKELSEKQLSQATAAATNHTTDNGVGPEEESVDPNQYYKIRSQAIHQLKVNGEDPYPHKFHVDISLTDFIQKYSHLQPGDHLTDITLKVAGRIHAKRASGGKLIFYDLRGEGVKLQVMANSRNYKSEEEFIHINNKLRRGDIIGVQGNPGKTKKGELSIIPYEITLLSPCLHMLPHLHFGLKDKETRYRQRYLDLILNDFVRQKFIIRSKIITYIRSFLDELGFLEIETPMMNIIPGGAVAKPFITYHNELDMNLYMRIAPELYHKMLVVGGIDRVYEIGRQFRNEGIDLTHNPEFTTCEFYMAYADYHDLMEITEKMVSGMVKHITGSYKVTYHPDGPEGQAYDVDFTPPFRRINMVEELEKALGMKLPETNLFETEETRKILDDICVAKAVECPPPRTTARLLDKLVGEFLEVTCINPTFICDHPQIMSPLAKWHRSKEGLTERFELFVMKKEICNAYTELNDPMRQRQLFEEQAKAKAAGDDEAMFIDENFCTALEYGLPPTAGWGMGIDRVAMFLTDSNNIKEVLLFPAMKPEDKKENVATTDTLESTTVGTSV
Protocol: Experiments were performed on the interaction between the HIV-1 integrase (IN) and the catalytic domain of the human mitochondrial lysyl-tRNA synthetase (mLysRS), which constitutes the main contribution to the Gag Pol:mLysRS interaction.
Homogeneous time-resolved fluorescence (HTRF) assays were performed in black, half-area, flat bottom, 96-well microplates (Costar #3694). Human mitochondrial LysRS with a C-terminal HA-tag (mLysRS-HA), diluted in HTRF buffer (10 mM Tris-HCl pH 7.5, 50 mM NaCl, 10 mM 2-mercaptoethanol, BSA at 1 mg/ml) was added (20 μl at a dimer concentration of 3.75 nM) in the wells of microplates placed on ice. Compounds of formula I or II (1 μl of a 10 mM solution in DMSO) were then added to the wells, and mixing was achieved by pipetting up and down 3-times 10 μl. […]
A 10 μl solution of KF prepared in HTRF buffer at a concentration of 250 mM was then added and mixing was achieved by pipetting up and down 3-times 20 μl. After centrifugation at 900 g for 3 min at 4° C., fluorescence of Eu^3+ cryptate and of XL665 was recorded at 620 nm (I620) and 665 nm (I665), respectively, after excitation of Eu^3+ cryptate at 317 nm, in an Infinite M1000 PRO microplate reader (TECAN). Results are expressed as the ratio of I665/I620. The HTRF signal corresponds to the ratio of fluorescence at 665 and 620 nm (I665/I620). […]

[2] = tested on: HIV-1 gfp+ virus in MT4 cells; test: Ex-vivo inhibition of HIV-1 replication (multi-cycle, HIV-1 gfp+ in MT4 cells, flow cytometry); type: cell-based; conditions: 10 μM compound, day 5, MT4 cells infected with HIV gfp+
Protocol: Ability of compounds of formula I or II to inhibit the HIV-1 replicative cycle ex vivo was conducted by methods commonly used in antiretroviral pharmacology.
MT4 cell line (Charneau et al. J. Virol. 1992, 66:2814) were maintained in RPMI 1640. HEK293T were maintained in Dulbecco's Modified Eagle Medium (DMEM). All media were supplemented with Glutamax and with 10% heat-inactivated fetal calf serum (Hyclone) and 1% penicillin/streptomycin (100 units/mL) (Gibco). All media were purchased from Gibco (Life Technologies Co.). All cell lines used here were incubated at 37° C., under 5% CO2 atmosphere. […]
For HIV-1 gfp+ vectors, viral replication is followed by GFP expression [i.e. the percentage and geometric mean fluorescence intensity (MFI) of GFP^+ cells]. […] Toxicity is also assessed by flow cytometry (side and forward scatter).
At J0 (day zero) MT4 cells was used for infection with HIV gfp+ virus at multiplicity of infection (m.o.i.) reaching 0.1-0.2 (50 ng of p24^gag antigen per 10^6 cells). […] At time J5 (day five), cells are then collected for cytometry analysis to quantify the production of viral particles and cell survival.

| SMILES | cellular toxicity (MT4 cells) | IC50 [1] | production of viral particles [2] |
| --- | --- | --- | --- |
| CCOC(=O)C1=C(C)NC(C)=C(C(=O)OCC)C1c1ccccc1/C=C/C(=O)OC(C)(C)C [I-a] | no cellular toxicity has been observed | – | – |
| COCCOC(=O)C1=C(C)NC(C)=C(C(=O)OC/C=C/c2ccccc2)C1c1cccc([N+](=O)[O-])c1 (stereo not drawn) [I-b] | no cellular toxicity has been observed | – | – |
| CC1=C(C(=O)OC(C)C)C(c2cccc([N+](=O)[O-])c2)C(C(=O)OC2CN(C(c3ccccc3)c3ccccc3)C2)=C(N)N1 (stereo not drawn) [I-d] | – | 400 ± 150 µM | – |
| CN1CCCC(n2nc(Cc3ccc(Cl)cc3)c3ccccc3c2=O)CC1 (stereo not drawn) [II-a] | no cellular toxicity has been observed | 300 ± 50 µM | greatly reduced |
